In series [1] the target is T1, OCT1 Phe244Ala variant (Homo sapiens, UniProt O15245, F244A).
T1 sequence (O15245 1-554 F244A): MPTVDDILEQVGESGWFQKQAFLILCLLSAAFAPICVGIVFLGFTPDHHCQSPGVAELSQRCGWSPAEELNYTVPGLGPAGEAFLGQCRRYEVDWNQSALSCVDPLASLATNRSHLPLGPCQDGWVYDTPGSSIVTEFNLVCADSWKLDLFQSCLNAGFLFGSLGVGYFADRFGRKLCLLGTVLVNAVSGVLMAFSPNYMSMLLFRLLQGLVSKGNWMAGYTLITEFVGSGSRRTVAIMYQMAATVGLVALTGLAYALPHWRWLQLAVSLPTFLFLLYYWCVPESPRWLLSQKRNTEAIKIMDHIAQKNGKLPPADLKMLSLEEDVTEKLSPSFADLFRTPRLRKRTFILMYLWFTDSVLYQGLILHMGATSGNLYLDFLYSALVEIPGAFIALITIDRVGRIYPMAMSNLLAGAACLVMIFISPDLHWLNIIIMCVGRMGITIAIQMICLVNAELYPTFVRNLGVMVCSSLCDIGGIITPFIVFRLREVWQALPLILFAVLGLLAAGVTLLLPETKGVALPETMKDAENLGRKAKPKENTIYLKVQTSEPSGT
Description: cell-based.

Series [2] has as its target T2, OCT1 WT (Homo sapiens, UniProt O15245).
T2 sequence (O15245 1-554): T1 sequence (O15245 1-554 F244A) with A244F
The series can be described thus: cell-based.

In series [3] the target is T1, OCT1 Phe244Ala variant. Description: Stereoselective cell uptake of racemic substrates (chiral LC-MS/MS), OCT1 Phe244Ala variant. The note with it: 2.5 μM racemic substance, 2 min.
For series [4], the target named is T1, OCT1 Phe244Ala variant. Description: Inhibition of (R,S)-ethambutol uptake, HEK293 cells overexpressing OCT1 Phe244Ala. The conditions noted are these: 20 μM inhibitor, 2 μM (R,S)-ethambutol, 5 min.
Series [5] deals with T1, OCT1 Phe244Ala variant. Description: Uptake screening (transport ratio over empty vector), HEK293 cells overexpressing OCT1 Phe244Ala variant.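 On all read-outs here: stably transfected HEK293 cells, intracellular substrate quantified by HPLC-tandem mass spectrometry in cell lysates, uptake in HBSS+ buffer.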 The conditions noted are these: for relative_Phe244Ala_uptake_in%: Phe244Ala uptake relative to OCT1 WT. On the set-up: expressed in transfected cells. Type of series: cell-based.
The target of series [6] is T2, OCT1 WT. The series can be described thus: Uptake screening (transport ratio over empty vector), HEK293 cells overexpressing OCT1 WT.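 Further: intracellular substrate levels quantified by HPLC–tandem mass spectrometry after uptake in HBSS+ buffer at 37 °C, stable Flp-In HEK293 lines, fold change versus empty vector–transfected cells.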 The series is classed as cell-based. Also on record: expressed in transfected cells.
In series [7] the target is T2, OCT1 WT. Description: Concentration-dependent uptake kinetics, HEK293 cells overexpressing OCT1 WT. The conditions noted are these: for Clint: ratio of vmax over Km.
The target in series [8] is T1, OCT1 Phe244Ala variant. Description: Concentration-dependent uptake kinetics, HEK293 cells overexpressing OCT1 Phe244Ala.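 On all read-outs here: cells exposed to rising substrate concentrations in buffer, intracellular drug measured by HPLC-tandem mass spectrometry, quantified against a standard curve, uptake referenced to empty vector-transfected HEK293 controls.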 The conditions noted are these: for Clint: ratio of vmax over Km.
Series [9] addresses T1, OCT1 Phe244Ala variant. The note with it: cited from earlier work.
Series [10] deals with T2, OCT1 WT. The series can be described thus: Stereoselective cell uptake of racemic substrates (chiral LC-MS/MS), OCT1 WT. The note with it: 2.5 μM racemic substance, 2 min.
Substrate in series [11]: CC(C)[N+](C)(CCOC(=O)C1c2ccccc2Oc2ccccc21)C(C)C
Description: cells, lysate or membranes. The conditions noted are these: other: OCT1 WT, HEK293, 2 min incubation, net uptake, mean ± SD of three experiments.

Substrate in series [12]: CC(=O)OC(C)C[N+](C)(C)C
Description: cells, lysate or membranes. The conditions noted are these: other: OCT1 WT, HEK293, 2 min incubation, net uptake, mean ± SD of three experiments.

Substrate in series [13]: Cc1ncc(C[n+]2csc(CCO)c2C)c(N)n1
Description: cells, lysate or membranes. The conditions noted are these: other: OCT1 WT, HEK293, 2 min incubation, net uptake, mean ± SD of three experiments.

Substrate in series [14]: COc1cc(CCN)cc(OC)c1OC
Description: cells, lysate or membranes. The conditions noted are these: other: OCT1 WT, HEK293, 2 min incubation, net uptake, mean ± SD of three experiments.

Substrate in series [15]: CCN1CCCC1CNC(=O)c1cc(S(N)(=O)=O)ccc1OC
The series can be described thus: cells, lysate or membranes. The note with it: other: OCT1 WT, HEK293, 2 min incubation, net uptake, mean ± SD of three experiments.

Substrate in series [16]: CC(C)(C)NCC(O)COc1cccc2c1CCC(=O)N2
Description: cells, lysate or membranes. The conditions noted are these: other: OCT1 WT, HEK293, 2 min incubation, net uptake, mean ± SD of three experiments.

Substrate in series [17]: CN1CCN(CC(=O)N2c3ccccc3C(=O)Nc3cccnc32)CC1
Description: cells, lysate or membranes. The note with it: other: OCT1 WT, HEK293, 2 min incubation, net uptake, mean ± SD of three experiments.

Substrate in series [18]: CC(CCc1ccc(O)cc1)NCCc1ccc(O)c(O)c1
Description: cells, lysate or membranes. The note with it: other: OCT1 WT, HEK293, 2 min incubation, net uptake, mean ± SD of three experiments.

Substrate in series [19]: NC(N)=Nc1nc(CSCCC(N)=NS(N)(=O)=O)cs1
The series can be described thus: cells, lysate or membranes. The conditions noted are these: other: OCT1 WT, HEK293, 2 min incubation, net uptake, mean ± SD of three experiments.

Substrate in series [20]: CN(C)CCc1c[nH]c2ccc(C[C@H]3COC(=O)N3)cc12
The series can be described thus: cells, lysate or membranes. The note with it: other: OCT1 WT, HEK293, 2 min incubation, net uptake, mean ± SD of three experiments.

Where [21] appears, read: uptake ratio of OCT1 Phe244Ala-overexpressing HEK293 cells over empty vector.
The mark [22] stands for this setting: uptake ratio of OCT1 WT-overexpressing HEK293 cells over empty vector.
The mark [23] stands for this setting: uptake ratio over empty vector, HEK293 cells overexpressing OCT1 Phe244Ala.
[24] abbreviates: uptake ratio over empty vector, HEK293 cells overexpressing OCT1 WT.

Substitutions are numbered along the chain they refer to. Entries after “also recorded” stand apart in the source; their conditions may differ.

What is called IC50 is the midpoint of a concentration-inhibition curve. A lower IC50 goes with greater potency in that assay. Regarding `CC(Cc1ccc(O)cc1)NCC(O)c1cc(O)cc(O)c1` (stereo not shown) [Fenoterol], the IC50 against OCT1 Phe244Ala variant [1] stood at 5.53 µM; against OCT1 WT [2] it was 0.541 µM. Moreover, on OCT1 Phe244Ala variant [3], the “Stereoselectivity of Phe244Ala variant compared to WT” value is on record as “opposite stereoselectivities; also recorded: only one enantiomer of the racemic mixtures showed altered transport”.

On to `CN(C)CCc1ccc(O)cc1` [Hordenine], for which the “Inhibition of the Phe244Ala mutant compared to the WT transporter (screening)” value on OCT1 Phe244Ala variant [4] is on record as “strongly reduced inhibition”. Further, the IC50 was determined as 53.2 µM against OCT1 Phe244Ala variant [1] and 3 µM against OCT1 WT [2]. At OCT1 Phe244Ala variant [5], the relative_Phe244Ala_uptake_in% was found to be 11.246%. Besides, the Mean_transport_ratio_Phe244Ala at OCT1 Phe244Ala variant [5] (setting [21]) is listed as 1.16. The Mean_transport_ratio_WT at OCT1 WT [6] (setting [22]) is on record as 2.424.

One may read the Km as the concentration of substrate that gives half-maximal velocity. As to `CN(C)C(=N)N=C(N)N` [Metformin], the vmax is on record as 10,813 ± 2176 pmol × mg protein^−1 × min^−1 at OCT1 WT [7] (OCT1 WT, HEK293, 2 min incubation, net uptake) and 4361 ± 1497 pmol × mg protein^−1 × min^−1 on OCT1 Phe244Ala variant [8] (OCT1 Phe244Ala, HEK293, 2 min incubation, net uptake). Also, the figures for the Clint on OCT1 WT [7] (OCT1 WT) and on OCT1 Phe244Ala variant [8] (OCT1 Phe244Ala) were 3.71 ± 2.82 ml × g Protein^−1 × min^−1 and 1.54 ± 2.02 ml × g Protein^−1 × min^−1, respectively. Further, the Km at 2 min was determined as 2.91 ± 1.63 mM at OCT1 WT [7] (human, HEK293 cells overexpressing OCT1 WT) and 2.83 ± 2.73 mM on OCT1 Phe244Ala variant [8] (human, HEK293 cells overexpressing OCT1 Phe244Ala). Also, the “Transport activity of Phe244Ala in % of WT activity” value at OCT1 Phe244Ala variant [5] (2.5 μM substrate, 2 min, Phe244Ala uptake relative to WT) was around 10%. For the same molecule, the relative_Phe244Ala_uptake_in% on OCT1 Phe244Ala variant [5] was found to be 14.754%. In addition, the Mean_transport_ratio_Phe244Ala at OCT1 Phe244Ala variant [5] (setting [21]) amounted to 1.869. The Mean_transport_ratio_WT on OCT1 WT [6] (setting [22]) is on record as 6.891. Also, the “Maximum transport capacity (vmax), Phe244Ala compared to WT” value on OCT1 Phe244Ala variant [8] (uptake kinetics, in words) is on record as “reduced transport capacity”. Also, the “Consequence of the Phe244Ala substitution on transport” value at OCT1 Phe244Ala variant [9] is on record as “complete loss of transport activity”.

Turning to `CN1CCN(CC(=O)N2c3ccccc3C(=O)Nc3cccnc32)CC1` [Pirenzepine], the Clint on OCT1 WT [7] (OCT1 WT) is listed as 0.43 ± 0.85 ml × g Protein^−1 × min^−1; at OCT1 Phe244Ala variant [8] (OCT1 Phe244Ala) it was 2.74 ± 2.15 ml × g Protein^−1 × min^−1. For the same molecule, the “Inhibition of the Phe244Ala mutant compared to the WT transporter (screening)” value at OCT1 Phe244Ala variant [4] is reported as “more potent inhibition”. Also, the IC50 on OCT1 Phe244Ala variant [1] was found to be 23.3 µM; against OCT1 WT [2] it was 104 µM. In addition, the “Fold increased uptake rate by Phe244Ala compared to WT” value at OCT1 Phe244Ala variant [5] (2.5 μM substrate, 2 min) was 8.0 fold. In addition, the “Km, Phe244Ala compared to WT” value at OCT1 Phe244Ala variant [8] (uptake kinetics, in words) is on record as “lower Km values”.

Consider `CCOc1ccccc1OCCN[C@H](C)Cc1ccc(OC)c(S(N)(=O)=O)c1` [Tamsulosin], for which the “Stereoselectivity of uptake via WT OCT1” value on OCT1 WT [10] was “stereoselective uptake”. Besides, the “Stereoselectivity of transport by the Phe244Ala variant” value at OCT1 Phe244Ala variant [3] was “lacked any stereoselective transport”. Besides, the relative_Phe244Ala_uptake_in% at OCT1 Phe244Ala variant [5] is recorded as 40.118%. On OCT1 Phe244Ala variant [5] (setting [23]), the Mean_transport_ratio_Phe244Ala is listed as 1.803. Besides, the Mean_transport_ratio_WT on OCT1 WT [6] (setting [24]) is 3.001.

In the case of `O=C(NCCNCC(O)COc1ccc(O)cc1)N1CCOCC1` (stereo not shown) [Xamoterol], at OCT1 WT [10], the “Stereoselectivity of uptake via WT OCT1” value is on record as “stereoselective uptake”. Also, on OCT1 Phe244Ala variant [3], the “Stereoselectivity of Phe244Ala variant compared to WT” value is given as “only one enantiomer of the racemic mixtures showed altered transport” and the “Stereoselectivity of transport by the Phe244Ala variant” value is reported as “lacked any stereoselective transport”. The relative_Phe244Ala_uptake_in% at OCT1 Phe244Ala variant [5] is reported as 54.211%. The Mean_transport_ratio_Phe244Ala at OCT1 Phe244Ala variant [5] (setting [23]) was found to be 19.358. Moreover, the Mean_transport_ratio_WT at OCT1 WT [6] (setting [24]) came out at 34.864.

B1: OCT1 WT (Homo sapiens) (protein)
chain: T1 sequence (O15245 1-554 F244A) with A244F
The Vmax is the rate approached at saturating substrate. As for B1, the Km in series [11] is 1.26 ± 1.12 µM; in series [12] it was 413 ± 314 µM; in series [13], 1161 ± 1029 µM; in series [14], 38.2 ± 14.3 µM; in [15], 89.2 ± 85.2 µM; in series [16], 449 ± 438 µM. Besides, the Km in [17] was 69.3 ± 103 µM; in [18], 40.1 ± 57.7 µM; in series [19], 64.7 ± 50.2 µM; in series [20], 98.5 ± 87.8 µM. In addition, the Vmax in series [11] is 0.000271 µmol/min/mg; in series [12] it was 0.00584 µmol/min/mg; in [13], 0.00872 µmol/min/mg; in series [14], 0.000185 µmol/min/mg; in series [16] it was 0.000453 µmol/min/mg; in series [17], 3e-05 µmol/min/mg. Besides, the values for the Vmax in series [18], in series [19] and in series [20] were 0.000122 µmol/min/mg, 0.00296 µmol/min/mg and 0.00213 µmol/min/mg, respectively. Also, the Vmax/Km in [11] came out at 224 µL/min/mg; in series [12], 14.1 µL/min/mg; in series [13] it was 7.51 µL/min/mg; in series [14], 4.84 µL/min/mg; in series [16] it was 1.01 µL/min/mg; in series [17], 0.43 µL/min/mg. Further, the Vmax/Km was 3.03 µL/min/mg in [18], 45.8 µL/min/mg in [19] and 21.6 µL/min/mg in series [20].

Values taken from PMC11602988 (The Journal of Biological Chemistry, 2024).
